“And” between values parts separate entries of the source, which are not always exact repeats. Identical values can stand only once.

5'-nucleotidase, sequence (P21589 whole entry): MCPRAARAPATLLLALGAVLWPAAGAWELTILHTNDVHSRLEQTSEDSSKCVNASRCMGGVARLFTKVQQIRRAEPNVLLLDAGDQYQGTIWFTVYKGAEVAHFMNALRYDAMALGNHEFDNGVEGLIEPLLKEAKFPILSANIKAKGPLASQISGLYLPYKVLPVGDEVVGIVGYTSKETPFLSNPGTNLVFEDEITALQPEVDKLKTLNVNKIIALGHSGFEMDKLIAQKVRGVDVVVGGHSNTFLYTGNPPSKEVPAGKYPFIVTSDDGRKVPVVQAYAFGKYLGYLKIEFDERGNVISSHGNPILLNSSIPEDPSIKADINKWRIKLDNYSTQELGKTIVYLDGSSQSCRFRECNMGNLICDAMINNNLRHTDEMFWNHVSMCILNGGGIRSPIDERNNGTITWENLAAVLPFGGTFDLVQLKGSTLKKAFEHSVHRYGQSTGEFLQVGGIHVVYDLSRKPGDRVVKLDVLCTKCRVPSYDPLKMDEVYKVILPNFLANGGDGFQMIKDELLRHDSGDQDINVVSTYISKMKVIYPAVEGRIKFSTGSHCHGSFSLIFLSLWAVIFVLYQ

This experiment concerns the target 5'-nucleotidase (Homo sapiens, UniProt P21589). The experiment can be described thus: The concentration of inorganic phosphate was determined using a phosphate standard curve.
`Nc1nc(Cl)nc2c1ncn2[C@H]1C[C@H](O)[C@@H](COC(C(=O)O)C(=O)O)O1`: the IC50 (as a rule, the concentration at which inhibition is half-maximal) was > 50000 nM. In the case of `Nc1nc(Cl)nc2c1ncn2[C@@H]1O[C@H](COC(Cc2ccc(-c3ccccc3)cc2)(C(=O)O)C(=O)O)[C@@H](O)[C@@H]1F` it was 29 nM; in that of `Nc1nc(Cl)nc2c1ncn2[C@@H]1O[C@H](COC(Cc2cnc(C(=O)O)s2)(C(=O)O)C(=O)O)[C@@H](O)[C@@H]1F`, 602 nM. In the case of `CCOC(=O)C(Cc1ccc(OC(F)(F)F)cc1)(OC[C@H]1O[C@@H](n2cnc3c(N)nc(Cl)nc32)[C@@H](F)[C@@H]1O)C(=O)O` (some centres not stated) it was 718 nM; in that of `CCOC(=O)C(Cc1ccc(-c2ccccc2)cc1)(OC[C@H]1O[C@@H](n2cnc3c(N)nc(Cl)nc32)[C@@H](F)[C@@H]1O)C(=O)O` (single isomer, unassigned), 7260 nM and 8260 nM; in that of `CCOC(=O)C(OC[C@H]1O[C@@H](n2cnc3c(NC(=O)OC(C)(C)C)nc(Cl)nc32)[C@@H](F)[C@@H]1O)P(=O)(O)O` (single isomer, unassigned), 2470 nM and 2950 nM. For the compound `Nc1nc(Cl)nc2c1ncn2[C@@H]1O[C@H](COC(CC(=O)O)C(=O)O)[C@@H](O)[C@@H]1F` (some centres not stated), the IC50 was > 50000 nM. Then `N#CCC(OC[C@H]1O[C@@H](n2cnc3c(N)nc(Cl)nc32)[C@@H](F)[C@@H]1O)(C(=O)O)C(=O)O`, with 1510 nM; and `[N-]=[N+]=N[C@H]1[C@@H](O)[C@H](n2cnc3c(N)nc(Cl)nc32)O[C@@H]1COC(C(=O)O)C(=O)O`, with > 50000 nM. In the case of `N#Cc1ccc(CC(OC[C@H]2O[C@@H](n3cnc4c(N)nc(Cl)nc43)[C@@H](F)[C@@H]2O)(C(=O)O)C(=O)O)cc1F` it was 887 nM.

On to `CCOC(=O)C(OC[C@H]1O[C@@H](n2cnc3c(N)nc(Cl)nc32)[C@@H](F)[C@@H]1O)P(=O)(O)O` (single isomer, unassigned), for which the IC50 was 2790 nM and 8910 nM. Then `CNC(=O)C(OC[C@H]1O[C@@H](n2cnc3c(N)nc(Cl)nc32)[C@@H](F)[C@@H]1O)P(=O)(O)O` (some centres not stated), with 12000 nM. Then `COC(=O)C(Cc1ccc(-c2ccccc2)cc1)(OC[C@H]1O[C@@H](n2cnc3c(N)nc(Cl)nc32)[C@@H](F)[C@@H]1O)C(=O)O` (single isomer, unassigned), with 2860 nM and 3430 nM; and `O=C(O)C(OC[C@H]1O[C@@H](n2cnc3c(NCc4ccccc4)nc(Cl)nc32)[C@@H](F)[C@@H]1O)C(=O)O`, with 8780 nM; and `Nc1nc(Cl)nc2c1ncn2[C@@H]1O[C@H](COC(CC(=O)O)(C(=O)O)C(=O)O)[C@@H](O)[C@@H]1F`, with 2560 nM.

In the case of `Nc1nc(Cl)nc2c1ncn2[C@@H]1O[C@H](COC(CCCCO)(C(=O)O)C(=O)O)[C@@H](O)[C@@H]1F`, the IC50 amounted to 1890 nM. The compound `N#Cc1cccc(CC(OC[C@H]2O[C@@H](n3cnc4c(N)nc(N=[N+]=[N-])nc43)[C@@H](F)[C@@H]2O)(C(=O)O)C(=O)O)c1` returned an IC50 of 1280 nM.

These data come from ChEMBL document CHEMBL5727399, “Ectonucleotidase inhibitors and methods of use thereof” (2019).
